The target in test [1] is T1, PKL (Homo sapiens, UniProt P30613). The experiment in a line: Surface plasmon resonance, PKL. For orientation: In SPR one partner is held on a chip, and binding of the other changes the refractive index at the surface.
Description: The surface was washed with 10 mM NaOH, 1M NaCl followed by immobilization of protein before subsequent deactivation by 1 M ethanolamine. Immobilization levels were typically 12000-16000 RU. The reference spot was treated as described, omitting the injection of PKL. Compound concentration series was injected over the immobilized protein in increasing concentrations using multi cycle (MCK) or single cycle kinetics (SCK) in running buffer (10 mM HEPES, 150 mM NaCl, 0.05% Tween20, 0.3% DMSO, pH 7.4). A 1:1 Langmuir interaction model is fitted to the experimental traces, enabling determination of kon, koff and Kd.
In test [2] the target is T2, PKM2 (Homo sapiens, UniProt P14618). The experiment in a line: Recombinant PKM2 activity assay (Kinase-Glo MAX). The arrangement: made in house. It counts as biochemical. As to the method: As these compounds were binding to a known allosteric site on PK, the effects of ligands I–IV on the enzymatic activities of PKL and PKM2 were determined (Figure S2). The two isozymes were incubated with increasing concentrations of compounds before the addition of substrates PEP and adenosine diphosphate (ADP), and the reactions were monitored using a Kinase‐Glo MAX assay.
T2 sequence (P14618 whole entry): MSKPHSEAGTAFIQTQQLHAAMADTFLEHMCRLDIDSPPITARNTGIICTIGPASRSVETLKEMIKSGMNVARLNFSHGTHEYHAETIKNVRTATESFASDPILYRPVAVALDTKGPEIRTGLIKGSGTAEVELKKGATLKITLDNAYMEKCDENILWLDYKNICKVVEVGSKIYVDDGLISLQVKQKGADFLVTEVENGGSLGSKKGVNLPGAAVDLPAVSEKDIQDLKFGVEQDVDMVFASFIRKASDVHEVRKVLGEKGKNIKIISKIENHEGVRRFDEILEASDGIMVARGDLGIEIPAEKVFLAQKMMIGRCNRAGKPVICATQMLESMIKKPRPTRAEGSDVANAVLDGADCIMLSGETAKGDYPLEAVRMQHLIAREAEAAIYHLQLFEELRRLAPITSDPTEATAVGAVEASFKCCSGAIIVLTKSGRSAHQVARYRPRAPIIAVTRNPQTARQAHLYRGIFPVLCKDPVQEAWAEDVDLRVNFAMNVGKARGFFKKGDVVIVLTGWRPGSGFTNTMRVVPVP
Figure S2. Effects of ligands I-IV on recombinant PK activities. PKL or PKM2 (10 nM) were pre-incubated with the compounds (0-100 µM) for 15 min following the addition of PEP (0.1 mM) and ADP (0.2 mM). The reactions were terminated by the addition of Kinase Glo-MAX reagent after 10 min, and the luminescence from each reaction was quantified using a plate reader. The activity values are expressed as a percentage of PK activity of the DMSO control. The potencies were calculated by best fit of the Hill equation to the luminescence data.^[2] (A) PKL titrations. (B) PKM2 titrations. Error bars represent the ±SE of replicates (n = 3).
On the technique in general: Kinase-Glo measures the ATP left after a reaction by luminescence.

Test [3] concerns the target T2, PKM2. The experiment in a line: Surface plasmon resonance, PKM2.
In another test the target is PKLNluc (Homo sapiens, UniProt P30613). The experiment in a line: Live-cell NanoBRET assay in HEK293 cells. It counts as cell-based. Set-up: host or cells: HEK293, transient transfection. As for the experimental part: To investigate the intracellular interaction of tracer IV with PKLNluc, we prepared a mammalian expression construct, fusing Nluc to the N‐terminus of PKL. […] As a negative control for NanoBRET experiments, a construct expressing Nluc alone (without PKL) was also prepared.
Chain of PKLNluc (P30613 1-543 isoform P30613-2): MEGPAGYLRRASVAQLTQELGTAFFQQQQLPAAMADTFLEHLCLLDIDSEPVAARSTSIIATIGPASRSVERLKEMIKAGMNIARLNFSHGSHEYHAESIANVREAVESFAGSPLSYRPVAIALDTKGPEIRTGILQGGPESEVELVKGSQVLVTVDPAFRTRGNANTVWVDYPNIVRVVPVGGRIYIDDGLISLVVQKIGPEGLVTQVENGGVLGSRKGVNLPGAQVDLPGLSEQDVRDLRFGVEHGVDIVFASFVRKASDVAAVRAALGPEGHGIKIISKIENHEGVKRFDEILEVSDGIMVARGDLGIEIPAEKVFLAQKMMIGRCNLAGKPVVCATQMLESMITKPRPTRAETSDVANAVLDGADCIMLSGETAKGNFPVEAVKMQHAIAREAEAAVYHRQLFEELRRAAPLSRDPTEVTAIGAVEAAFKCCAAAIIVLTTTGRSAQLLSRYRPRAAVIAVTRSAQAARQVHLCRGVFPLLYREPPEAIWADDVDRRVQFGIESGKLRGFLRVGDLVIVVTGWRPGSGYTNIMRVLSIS
Additionally, cell viability assays were conducted on cells transfected with either PKLNluc or Nluc plasmids and incubated with tracer IV (Figure S4b,c).
HEK293 cells were passed one day before transfection. The concentration of cells was adjusted to 2x10^5 cells/ml in Opti-MEM™ without phenol red (Invitrogen) supplemented with 1% FBS (Hyclone). Cells (4x10^6) were reversed transfected with 1 µg of PKLNluc plasmid or 1 µg Nluc plasmid and 9 µg of carrier DNA (Promega) using 30 µL of Fugene HD transfection reagent (Promega). […] Work solutions (100x) of tracer IV were prepared from DMSO stocks and further diluted to 20x concentrations with Tracer buffer (Promega). Twenty-five hours after transfection, the cells were treated with 5 µL/well of each of 20x concentrations of the tracer (final concentrations in the assay were in the range 0.001-1 µM, depending on the experiment). Thereafter, 10 µL of 10x solutions of competitors (diluted in Opti-MEM™ medium from stocks of 100x prepared in DMSO) were added to some sets of cells, while the other set received only Opti-MEM™ containing 1% DMSO. The cells were incubated for 2 h at 37°C (5% CO2). […] For each sample well, BRET ratios were calculated using the following formula:
BRET ratio mBU= AcceptorSDonorS-AcceptorNTDonorNT
Where AcceptorS is the luminescence intensity of the sample well at 550 nm, DonorS is the luminescence of the sample well at 450 nm, and AcceptorNT and DonorNT are the luminescence of the no-tracer control at 550 nm and 450 nm respectively.
A general note: Bioluminescence resonance energy transfer reports proximity on the nanometre scale.

In test [4] the target is T1, PKL. The experiment in a line: Fluorescence indication titration of tracer IV. Set-up: co-crystallisation of full-length PKL (including the B-domain); 8xHis (TEV-cleavable) (N, cleaved yes); made in house; host or cells: E. coli T7 Express (NEB), pExp-NHis plasmid. It counts as binding. As for the experimental part:
The binding kinetics of IV were further validated with fluorescence titration experiments conducted with recombinant PKL. As previously reported, SBD‐tagged PKL ligands fluorescence upon binding to the allosteric pocket,^[ [43] ^] enabling K D determination by saturation binding. […] Association kinetics were then measured by adding tracer IV to PKL and monitoring fluorescence over time. Data were fit using an exponential association model (Equation S2),^[ [49] ^] and k on was derived from the reciprocal analysis of recorded k obs values. The k off was subsequently calculated (Equation S3).^[ [49] ^] The fluorescent binding experiments were consistent with SPR results, confirming a mid‐nanomolar K D of IV.
Titrations of tracer IV were performed in the presence and absence of 10 µM FBP. […] PKL was prepared as a 2x working solution at a constant concentration used throughout the titration. Equal volumes (10 µL) of 2x tracer and 2x PKL solutions were mixed (1:1) in 384-well microplates (Corning Black PS, 3820). For each experiment, three 12-point triplicate series were prepared containing either: (1) tracer IV and buffer (no PKL), (2) tracer IV and PKL (0.1 µM), (3) tracer IV and PKL (0.1 µM) and mitapivat (10 µM, competitor control). […] Titration data were analyzed in Origin(Pro) 2023^[8] and fitted to the Hill equation to determine EC₅₀ values.

Several values for one entry are separate records, joined by “and”; a condition that tells them apart may be missing. Identical values can stand only once.

T1 sequence (P30613 1-543 isoform P30613-2): as above

On to `CN(C)c1ccc(S(=O)(=O)c2ccc3c(=O)n(Cc4cc[nH]n4)ncc3c2)c2nonc12` [Compound IV, 2-((1H-Pyrazol-3-yl)methyl)-6-((7-(dimethylamino)benzo[c][1,2,5]oxadiazol-4-yl)sulfonyl)phthalazin-1(2H)-one], for which the Kd on PKL [1] (K D SPR (PKL), 20 °C, mean ± SE n=3) was 37 ± 1 nM; at PKL [1] (KD, independent replicates, single cycle kinetics, 1:1 Langmuir fit, Figure S14) it was 38.8 nM and 36.9 nM; at PKM2 [3], 1370 ± 218 nM; at PKL [4] (recombinant PKL, Hill fit, read-out: K D fluorescence titration (PKL)), 42 ± 7 nM. Also, the “PKL selectivity over PKM2” value on PKL [1] (SPR K D PKM2 vs PKL) was found to be 37 fold. The koff at PKL [1] (read-out: k off SPR (PKL)) is 0.00617 s⁻¹; at PKM2 [3] (read-out: k off SPR (PKM2)), 0.0133 s⁻¹; at PKL [4] (calculated from K D and k on (Equation S3), read-out: k off fluorescence titration (PKL) (converted)), 0.00865 s⁻¹. Also, the kon on PKL [1] (read-out: k on SPR (PKL)) was 168000 M⁻¹ s⁻¹; at PKM2 [3] (read-out: k on SPR (PKM2)), 9830 M⁻¹ s⁻¹; on PKL [4] (from k obs values) it was 206000 M⁻¹ s⁻¹. Further, the “PKM2 E max” value on PKM2 [2] (recombinant PKM2) is listed as 449 % of vehicle. In addition, the EC50 at PKM2 [2] (recombinant PKM2 10 nM, 15 min pre-incubation, PEP 0.1 mM, ADP 0.2 mM) is 17 nM; on PKLNluc (HEK293 transfected with PKLNluc, 2 h 37 °C, displacement control (20 µM mitapivat) subtracted, read-out: EC50 (cell), tracer titration, specific BRET signal), 18.4 nM. Moreover, at PKLNluc (HEK293, PKLNluc), the “tracer concentration above which nonspecific binding signals emerged” value was “exceeding 400 nM”. Further, at PKL [4] (PKLwt, with and without 10 µM FBP), the “effect of FBP on binding affinity” value is recorded as “no significant change in binding affinity”.
